From patent US6646137B1, “Non-peptide GnRH agents” (priority 1998, dated 2003)
Like-named read-outs stand apart in the source and are kept apart here.

Target: T1, human GnRH receptor (Homo sapiens, UniProt P30968)
T1 construct: The cDNA for the human GnRH receptor is cloned into the plasmid expression vector, pcDNA 3; expressed in transfected cells; host or cells: HEK 293 cells, stably transfected (pcDNA 3); membrane preparation
T1 sequence (P30968 1-328): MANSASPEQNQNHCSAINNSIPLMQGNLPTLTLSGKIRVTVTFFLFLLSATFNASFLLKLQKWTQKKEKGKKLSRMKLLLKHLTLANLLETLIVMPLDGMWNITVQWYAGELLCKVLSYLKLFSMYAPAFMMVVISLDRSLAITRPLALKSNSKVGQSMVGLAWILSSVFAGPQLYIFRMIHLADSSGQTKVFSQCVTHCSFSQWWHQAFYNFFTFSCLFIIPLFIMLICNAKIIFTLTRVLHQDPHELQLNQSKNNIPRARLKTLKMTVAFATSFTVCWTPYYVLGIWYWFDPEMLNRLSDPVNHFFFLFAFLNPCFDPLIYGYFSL
Assay: GnRH receptor competitive radioligand binding assay (125I-GnRH-A, HEK 293 cell membranes)
Settings: compound at 10 μM
Summary of the method: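 Membranes from HEK 293 cells stably expressing human GnRH receptor (0.5–1.0 mg/mL) incubated 1 h at room temperature with ~0.05–0.1 nM 125I-GnRH-A plus competitor in 50 mM HEPES pH 7.4, 1 mM EDTA, 2.5 mM MgCl2, 0.1% BSA. Bound label collected by filtration onto PEI-soaked filters and counted by scintillation.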

[1] = average of 1st and 2nd test, read-out: Average % Remaining (percent of specific binding remaining)
[2] = crude compounds, 125I-GnRH-A, lower value = higher inhibition, read-out: % Remaining 1st Test (percent of specific binding remaining)
[3] = crude compounds, 125I-GnRH-A, lower value = higher inhibition, read-out: % Remaining 2nd Test (percent of specific binding remaining)

Row | remaining activity at 10 µM [1] [%] | remaining activity at 10 µM [2] [%] | remaining activity at 10 µM [3] [%] | Structure (SMILES)
1 | 57 | 58 | 56 | CCCCN(CCCC)c1ccc(CN(CC2CCC(CNC(=N)N)CC2)C(=O)c2ccco2)cc1 (stereo not drawn) [Compound 88]
2 | 57 | 61 | 52 | CCOC(=O)C(=O)N(Cc1cc2c(cc1C)C(C)(C)CCC2(C)C)CC1CCC(CNC(=N)N)CC1 (stereo not drawn) [Compound 94]
3 | 52 | 44 | 60 | Cc1cc2c(cc1CN(CC1CCC(CNC(=N)N)CC1)C(=O)c1c(C)noc1C)C(C)(C)CCC2(C)C (stereo not drawn) [Compound 96]
4 | 58 | 58 | 58 | Cc1cc2c(cc1CN(CC1CCC(CNC(=N)N)CC1)C(=O)c1ccc(C#N)cc1)C(C)(C)CCC2(C)C (stereo not drawn) [Compound 98]
5 | 55 | 52 | 58 | COC(=O)CCCCCC(=O)N(Cc1cc2c(cc1C)C(C)(C)CCC2(C)C)CC1CCC(CNC(=N)N)CC1 (stereo not drawn) [Compound 100]
6 | 60 | 66 | 54 | Cc1cc2c(cc1CN(CC1CCC(CNC(=N)N)CC1)C(=O)Cc1ccccc1)C(C)(C)CCC2(C)C (stereo not drawn) [Compound 102]
7 | 56 | 56 | 56 | Cc1cc(C(=O)N(Cc2cc3c(cc2C)C(C)(C)CCC3(C)C)CC2CCC(CNC(=N)N)CC2)n(C(C)(C)C)n1 (stereo not drawn) [Compound 105]
8 | 57 | 59 | 54 | CCCCC(CC)C(=O)N(Cc1cc2c(cc1C)C(C)(C)CCC2(C)C)CC1CCC(CNC(=N)N)CC1 (stereo not drawn) [Compound 117]
9 | 60 | 62 | 58 | Cc1cc2c(cc1CN(CC1CCC(CNC(=N)N)CC1)C(=O)c1cnn(-c3ccccc3)c1C(F)(F)F)C(C)(C)CCC2(C)C (stereo not drawn) [Compound 118]
10 | 57 | 57 | 57 | CC(=O)O[C@@H](C)C(=O)N(Cc1cc2c(cc1C)C(C)(C)CCC2(C)C)CC1CCC(CNC(=N)N)CC1 (stereo partly drawn) [Compound 119]
